ChEMBL document CHEMBL3272053, “(exo, exo)-2-Aryltropane-3-carboxylic esters, hypoglycemic agents with accompanying analgesic activity” (J Med Chem, 1978)
Calls of active or inactive are those of the source. The rule behind the calls is not given here.

Legend:
Rattus norvegicus [1] = test: Narcotic analgesic activity in fasted Sprague-Dawley rat at 240 mg/kg, po measured at 15 mins by D'Amour-Smith tail-flick test relative to control; assay type: functional
Rattus norvegicus [2] = test: Hypoglycemic activity in fasted Sprague-Dawley rat assessed as reduction of blood glucose level at 100 mg/kg, po measured at 1.5 hrs relative to control; assay type: functional; design: scale not given: the % may be the effect or the level left
Rattus norvegicus [3] = test: Hypoglycemic activity in fasted Sprague-Dawley rat assessed as reduction of blood glucose level at 100 mg/kg, po measured at 0.5 hrs relative to control; assay type: functional; design: scale not given: the % may be the effect or the level left
Rattus norvegicus [4] = test: Hypoglycemic activity in glucose loaded Sprague-Dawley rat assessed as reduction of blood glucose level at 100 mg/kg, po measured at 1.5 hrs relative to control; assay type: functional; design: scale not given: the % may be the effect or the level left
Rattus norvegicus [5] = test: Hypoglycemic activity in Sprague-Dawley rat assessed as reduction of blood glucose level at 100 mg/kg, po by glucagon-impaired glucose disposal test relative to control; assay type: functional; design: scale not given: the % may be the effect or the level left
Rattus norvegicus [6] = test: Toxicity in Sprague-Dawley rat at 240 mg/kg, po; assay type: organism-based; design: dose 240 mg/kg, route oral; details: in vivo
Rattus norvegicus [7] = test: Hypoglycemic activity in glucose/glycogen loaded Sprague-Dawley rat assessed as reduction of blood glucose level at 100 mg/kg, po measured at 0.5 hrs relative to control; assay type: functional; design: scale not given: the % may be the effect or the level left
[8] = Drug metabolism in glucose loaded Sprague-Dawley rat urine assessed as formation of (7)- (exo,exo)-methyl 2-(thiophen-2-yl)-8-azabicyclo[3.2.1]octane-3-carboxylate hydrochloride at 20 mg, po administered 3 to 6 hrs measured for 24 hrs by TLC/mass spectrographic analysis; assay type: ADME, organism-based; details: in vivo
Rattus norvegicus [9] = test: Hypoglycemic activity in Sprague-Dawley rat assessed as reduction of blood glucose level at 100 mg/kg, po by glucagon-impaired glucose disposal test in presence of microsomal enzyme inhibitor SKF 525-A; assay type: functional, organism-based; design: dose 100 mg/kg
Rattus norvegicus [10] = test: Hypoglycemic activity in glucose loaded Sprague-Dawley rat assessed as reduction of blood glucose level at 100 mg/kg, po measured at 0.5 hrs relative to control; assay type: functional; design: scale not given: the % may be the effect or the level left
Rattus norvegicus [11] = test: Hypoglycemic activity in glucose loaded Sprague-Dawley rat assessed as reduction of blood glucose level at 100 mg/kg, po measured at 1 hr relative to control; assay type: functional; design: scale not given: the % may be the effect or the level left
Rattus norvegicus [12] = test: Narcotic analgesic activity in fasted Sprague-Dawley rat at 240 mg/kg, po measured within 15 mins in presence of (exo,endo)-methyl 8-methyl-2-phenyl-8-azabicyclo[3.2.1]octane-3-carboxylate; assay type: functional, organism-based; design: dose 240 mg/kg
Rattus norvegicus [13] = test: Hypoglycemic activity in glucose/glycogen loaded Sprague-Dawley rat assessed as reduction of glucose level per 100 mL of blood at 100 mg/kg, po measured at 2 hrs (reference value: 110 +/- 10 mg/100 mL); assay type: functional
Rattus norvegicus [14] = test: Hypoglycemic activity in fasted Sprague-Dawley rat assessed as reduction of blood glucose level at 100 mg/kg, po measured at 1 hr relative to control; assay type: functional; design: scale not given: the % may be the effect or the level left
Rattus norvegicus [15] = test: Hypoglycemic activity in Sprague-Dawley rat assessed as reduction of blood glucose level at 100 mg/kg, po by glucagon-impaired glucose disposal test in presence of opioid antagonist nalorphine; assay type: functional, organism-based; design: dose 100 mg/kg
Rattus norvegicus [16] = test: Hypoglycemic activity in Sprague-Dawley rat assessed as reduction of blood glucose level at 100 mg/kg, po by glucagon-impaired glucose disposal test in presence of (exo,endo)-methyl 8-methyl-2-phenyl-8-azabicyclo[3.2.1]octane-3-carboxylate; assay type: functional, organism-based; design: dose 100 mg/kg
Rattus norvegicus [17] = test: Hypoglycemic activity in glucose loaded Sprague-Dawley rat assessed as reduction of glucose level per 100 mL of blood at 100 mg/kg, po measured at 2 hrs (reference value: 104 +/- 4 mg/100 mL); assay type: functional
Rattus norvegicus [18] = test: Hypoglycemic activity in glucose/glycogen loaded Sprague-Dawley rat assessed as reduction of blood glucose level at 100 mg/kg, po measured at 1 hr relative to control; assay type: functional; design: scale not given: the % may be the effect or the level left
Rattus norvegicus [19] = test: Hypoglycemic activity in fasted Sprague-Dawley rat assessed as reduction of blood glucose level at 100 mg/kg, po measured at 2 hrs relative to control; assay type: functional; design: scale not given: the % may be the effect or the level left
Mus musculus [20] = test: Analgesic activity in po dosed Swiss-Webster mouse assessed as reduction of acetylcholine-induced writhing; assay type: functional
Rattus norvegicus [21] = test: Analgesic activity in po dosed rat assessed as reduction of intraarterial bradykinin-induced pain response; assay type: functional
Rattus norvegicus [22] = test: Hypoglycemic activity in glucose/glycogen loaded Sprague-Dawley rat assessed as reduction of blood glucose level at 100 mg/kg, po measured at 1.5 hrs relative to control; assay type: functional; design: scale not given: the % may be the effect or the level left
Mus musculus [23] = test: Analgesic activity in sc dosed Swiss-Webster mouse assessed as reduction of acetylcholine-induced writhing; assay type: functional; details: Mus musculus, Swiss-Webster, sc; read-out: ED50
Rattus norvegicus [24] = test: Toxicity in Sprague-Dawley rat assessed as convulsion at 60 mg/kg, sc; assay type: organism-based; design: dose 60 mg/kg, route subcutaneous; details: in vivo
Rattus norvegicus [25] = test: Narcotic antagonist activity in sc dosed fed Sprague-Dawley rat assessed as concentration required to decrease phenazocine-induced analgesic activity by 50%; assay type: functional
Rattus norvegicus [26] = test: Toxicity in Sprague-Dawley rat assessed as tremor at 60 mg/kg, sc; assay type: organism-based; design: dose 60 mg/kg, route subcutaneous; details: in vivo
Rattus norvegicus [27] = test: Toxicity in Sprague-Dawley rat assessed as hyperactivity at 2.5 mg/kg, sc; assay type: organism-based; design: dose 2.5 mg/kg, route subcutaneous; details: in vivo
Rattus norvegicus [28] = test: Narcotic analgesic activity in fed Sprague-Dawley rat at 60 mg/kg, sc measured at 30 mins by D'Amour-Smith tail-flick test; assay type: functional; details: route subcutaneous
Rattus norvegicus [29] = test: Hypoglycemic activity in Sprague-Dawley rat assessed as reduction of blood glucose level at 64 mg/kg, po by glucagon-impaired glucose disposal test relative to control; assay type: functional; design: scale not given: the % may be the effect or the level left
Mus musculus [30] = test: Toxicity in Swiss-Webster mouse assessed as hyperactivity at 75 mg/kg, sc; assay type: organism-based; design: dose 75 mg/kg, route subcutaneous; details: in vivo
Rattus norvegicus [31] = test: Hypoglycemic activity in Sprague-Dawley rat assessed as reduction of blood glucose level at 88 mg/kg, po by glucagon-impaired glucose disposal test relative to control; assay type: functional; design: scale not given: the % may be the effect or the level left
Rattus norvegicus [32] = test: Narcotic analgesic activity in fed Sprague-Dawley rat at 120 mg/kg, sc measured at 30 mins by D'Amour-Smith tail-flick test; assay type: functional; details: route subcutaneous
Rattus norvegicus [33] = test: Toxicity in Sprague-Dawley rat assessed as tremor at 120 mg/kg, sc; assay type: organism-based; design: dose 120 mg/kg, route subcutaneous; details: in vivo
Rattus norvegicus [34] = test: Analgesic activity in po dosed rat assessed as reduction of intraarterial bradykinin-induced pain response measured up to 120 mins; assay type: functional; details: 2 h
Rattus norvegicus [35] = test: Hypoglycemic activity in glucose/glycogen loaded Sprague-Dawley rat assessed as reduction of blood glucose level at 87 mg/kg, po; assay type: functional, organism-based; design: dose 87 mg/kg
Rattus norvegicus [36] = test: Narcotic analgesic activity in po dosed fasted Sprague-Dawley rat measured at 60 mins by D'Amour-Smith tail-flick test; assay type: functional; details: Rattus norvegicus, Sprague-Dawley, Tail, po, 1 h; read-out: ED50

CCCCCN1[C@@H]2CC[C@@H]1[C@@H](c1cccs1)[C@@H](C(=O)OC)C2.CS(=O)(=O)O
Activity (Rattus norvegicus [1]): 71%
Activity (Rattus norvegicus [2]): 39%
Activity (Rattus norvegicus [3]): 42%
Activity (Rattus norvegicus [4]): 33%
Activity (Rattus norvegicus [5]): 60%
Activity (Rattus norvegicus [6]): Non-toxic
Activity (Rattus norvegicus [7]): 60%
Drug metabolism [8]: metabolite_detected
Activity (Rattus norvegicus [9]): inactive
Activity (Rattus norvegicus [10]): 67%
Activity (Rattus norvegicus [11]): 61%
Activity (Rattus norvegicus [12]): inactive
Activity (Rattus norvegicus [13]): 77 mg/kg
Activity (Rattus norvegicus [14]): 41%
Activity (Rattus norvegicus [15]): Active
Activity (Rattus norvegicus [16]): Active
Activity (Rattus norvegicus [17]): 76 mg/kg
Activity (Rattus norvegicus [18]): 60%
Activity (Rattus norvegicus [19]): 33%
ED50 (Mus musculus [20]): 57 mg/kg
ED50 (Rattus norvegicus [21]): 17 mg/kg
Activity (Rattus norvegicus [22]): 52%

COC(=O)[C@H]1C[C@H]2CC[C@H]([C@H]1c1ccccc1)N2CC1CC1.Cc1ccc(S(=O)(=O)O)cc1
ED50 (Mus musculus [23]): 16 mg/kg
Activity (Rattus norvegicus [24]): Toxic
Activity (Rattus norvegicus [25]): 4.7 mg/kg
Activity (Rattus norvegicus [26]): Toxic
Activity (Rattus norvegicus [27]): Toxic
Activity (Rattus norvegicus [28]): <20%
Activity (Rattus norvegicus [29]): 20%

COC(=O)[C@H]1C[C@H]2CC[C@H]([C@H]1Cc1ccccc1)N2C.Cl
Activity (Mus musculus [30]): Toxic
ED50 (Mus musculus [23]): 5.8 mg/kg
Activity (Rattus norvegicus [31]): 21%
Activity (Rattus norvegicus [32]): <20%
Activity (Rattus norvegicus [33]): Toxic

COC(=O)[C@H]1CCCN(C)[C@H]1c1cccs1 (relative stereo)
ED50 (Rattus norvegicus [34]): 111 mg/kg
ED50 (Mus musculus [23]): 3.8 mg/kg
Activity (Rattus norvegicus [35]): inactive
ED50 (Rattus norvegicus [36]): 112 mg/kg
ED50 (Mus musculus [20]): 11 mg/kg
